Literature values in PubChem BioAssay AID1259410 (Chemical Carcinogenesis Research Information System (CCRIS), 2018).

Test system: rodent tumor promotion studies, tumor incidence
Test: CCRIS tumor promotion studies

## CC1=C(/C=C/C(C)=C/C=C/C(C)=C/C=C/C=C(C)/C=C/C=C(C)/C=C/C2=C(C)CCCC2(C)C)C(C)(C)CCC1
Carcinogen: 4-(N-METHYL-N-NITROSAMINO)-1-(3-PYRIDYL)-1-BUTANONE (NNK) [64091-91-4], Doses [Carcinogen]: 3.5 MG ON D 7, Doses [Promoter]: 0, 120, 600, 3000 PPM FROM START TO END AT 26 WKS (STUDY DURATION: 26 WKS), Doses [Promoter]: 0, 120, 600, 3000 PPM FROM START TO END AT 26 WKS (STUDY DURATION: 26 WKS), Route [Carcinogen]: IP INJECTION, Route [Promoter]: DIET, Species: MOUSE, Strain/Sex: A/J/MALE
  outcome: lung - negative
Carcinogen: 4-(N-METHYL-N-NITROSAMINO)-1-(3-PYRIDYL)-1-BUTANONE (NNK) [64091-91-4], Doses [Carcinogen]: 3.5 MG ON D 15 (STUDY DURATION: 28 WKS), Doses [Promoter]: 600 PPM WKS 1 TO 3, WKS 6 TO 28 OR WKS 1 TO 28 (STUDY DURATION: 28 WKS), Route [Carcinogen]: IP INJECTION, Route [Promoter]: DIET, Species: MOUSE, Strain/Sex: A/J/MALE
  outcome: lung - negative
Carcinogen: 4-(N-METHYL-N-NITROSAMINO)-1-(3-PYRIDYL)-1-BUTANONE (NNK) [64091-91-4], Doses [Carcinogen]: 5 MG ON D 28, Doses [Promoter]: 600 PPM FROM START TO WK 5, WK 3 TO 8, WKS 8 TO 24 OR FOR 24 WKS (STUDY DURATION: 24 WKS), Route [Carcinogen]: IP INJECTION, Route [Promoter]: DIET, Species: MOUSE, Strain/Sex: A/J/MALE
  outcome: lung - negative

## CC[C@H](C)[C@H](NC(=O)[C@H](CO)NC(=O)[C@H](CC(N)=O)NC(=O)[C@H](CC(C)C)NC(=O)[C@H](Cc1ccc(O)cc1)NC(=O)[C@H](CCCCN)NC(=O)[C@H](CCCCN)NC(=O)[C@@H](NC(=O)[C@H](C)NC(=O)[C@H](CCSC)NC(=O)[C@H](CCC(N)=O)NC(=O)[C@H](CCCCN)NC(=O)[C@H](CCCNC(=N)N)NC(=O)[C@H](CC(C)C)NC(=O)[C@H](CCCNC(=N)N)NC(=O)[C@@H](NC(=O)[C@H](Cc1ccc(O)cc1)NC(=O)[C@H](CC(N)=O)NC(=O)[C@H](CC(=O)O)NC(=O)[C@@H](NC(=O)[C@H](Cc1ccccc1)NC(=O)[C@@H](NC(=O)[C@H](C)NC(=O)[C@H](CC(=O)O)NC(=O)[C@H](CO)NC(=O)[C@@H](N)Cc1c[nH]cn1)C(C)C)[C@@H](C)O)[C@@H](C)O)C(C)C)C(=O)N[C@@H](CC(C)C)C(=O)N[C@@H](CC(N)=O)C(=O)O
Carcinogen: AZOXYMETHANE, 25843-45-2, Doses [Carcinogen]: 7.4 MG/KG BW IN 0.9% SALINE 1/WK FOR 10 WK, Doses [Promoter]: 0, 20 UG/KG BW IN OLIVE OIL 1/2 D FOR DURATION OF STUDY (STUDY DURATION: 45 WK), Route [Carcinogen]: SUBCUTANEOUS, Route [Promoter]: SUBCUTANEOUS, Species: RAT, Strain/Sex: WISTAR/MALE
  outcome: colon: tumor

## C=CCc1ccc(O)c(OC)c1
Carcinogen: 1,2-DIMETHYLHYDRAZINE, 57-14-7 1-METHYL-1-NITROSOUREA, 684-93-5, Carcinogen: 1,2-DIMETHYLHYDRAZINE, 57-14-7 1-METHYL-1-NITROSOUREA, 684-93-5, Doses [Carcinogen]: 40 MG/KG 1,2-DIMETHYLHYDRAZINE IN 0.9% NACL SUBCUTANEOUS 3/WK IN FIRST WK FOLLOWED BY 20 MG 1-METHYL-1-NITROSOUREA/5 ML, Doses [Promoter]: 0, 0.8% IN DIET FOR 48 WK ADMINISTERED 1 WK POST CARCINOGEN DOSE (STUDY DURATION: 52 WK), Route [Carcinogen]: SUBCUTANEOUS, INTRAPERITONEAL, Route [Promoter]: ORAL, Species: RAT, Strain/Sex: F344/MALE
  outcome: forestomach: papilloma

## COc1c(N2C[C@@H]3CCCN[C@@H]3C2)c(F)cc2c(=O)c(C(=O)O)cn(C3CC3)c12
Carcinogen: N-METHYL-N-NITROSOUREA, 684-93-5, Doses [Carcinogen]: 4.5 MG/KG BW 1/WK FOR FIRST 10 WK, Doses [Promoter]: 0, 500 MG/KG BW/D FOR 24 WK BEGINNING 14 WK POST CARCINOGEN FIRST DOSE (STUDY DURATION: 38 WK), Route [Carcinogen]: GAVAGE, Route [Promoter]: GAVAGE, Species: RAT, Strain/Sex: WISTAR/MALE, FEMALE
  outcome: forestomach: squamous cell papilloma, glandular stomach adenocarcinoma

## CCCCCCCCCCCCCCCCCC(=O)OCCOC[C@@H](OCCO)[C@H]1OC[C@@H](OCCO)[C@@H]1OCCO
Carcinogen: 7,12-DIMETHYLBENZ(A)ANTHRACENE, Doses [Carcinogen]: TOP, Route [Carcinogen]: DERMAL, Route [Promoter]: DERMAL, Species: MOUSE, Strain/Sex: MALE
  outcome: integumentary system (skin)

## C/C=C(\C(=C/C)c1ccc(O)cc1)c1ccc(O)cc1
Carcinogen: IRRADIATION, Doses [Carcinogen]: 260 CGY GAMMA RAYS AT DAY 20 OF PREGNANCY, Doses [Promoter]: 0, 0.376 UG/D RELEASED FROM PELLET IMPLANTED AFTER NURSING DISCONTINUED, PELLET REPLACED EVERY 8 WK (STUDY DURATION: 1 Y, Route [Carcinogen]: DERMAL, Route [Promoter]: IMPLANT, Species: RAT, Strain/Sex: WISTAR/FEMALE
  outcome: mammary gland: tumor

## CC1=C(/C=C/C(C)=C/C=C/C(C)=C\C(=O)O)C(C)(C)CCC1
Carcinogen: ETHYLNITROSOUREA [759-73-9], Doses [Carcinogen]: 120 UG/KG ONCE, Doses [Promoter]: 200 MG/KG FEED FOR 60 WK (STUDY DURATION: 60 WK), Route [Carcinogen]: IP INJECTION, Route [Promoter]: DIET, Species: MOUSE, Strain/Sex: B6C3F1/MALE (?,44)/(?,35)
  outcome: liver: hepatocellular carcinoma
